The subject of this experiment is MV-4-11 cells. Kind of experiment: Cell Viability Assay in MV-4-11 Cells. The following applies: Homo sapiens, MV4-11, 72 h, MV-4-11 cells, 72 h, Cell-Titer Glo; read-out: IC50. It counts as cell-based. Summed up: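 Luminescent ATP read-out (CellTiter-Glo) after 72 h compound treatment of MV-4-11 leukaemia cells (7,000 per well, IMDM plus 10% FBS). Values expressed relative to DMSO control and derived by four-parameter non-linear regression.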
The IC50 is the concentration that gives 50% inhibition. As to `Cc1cn(-c2ccc(C(=O)N(c3nccc4scc(C)c34)[C@@H]3CCCNC3)c(F)c2)nn1` [Example 690, (R)-2-fluoro-4-(4-methyl-1H-1,2,3-triazol-1-yl)-N-(3-methylthieno[3,2-c]pyridin-4-yl)-N-(piperidin-3-yl)benzamide], the IC50 was determined as 150 nM.
Then `Cc1cn(-c2ccc(C(=O)N(c3nccc4cc(Cl)cc(C)c34)[C@@H]3CCCNC3)c(F)c2)nn1` [Example 691, (R)—N-(6-chloro-8-methylisoquinolin-1-yl)-2-fluoro-4-(4-methyl-1H-1,2,3-triazol-1-yl)-N-(piperidin-3-yl)benzamide], with 110 nM; and `C=C(C)c1ccc2c(N(C(=O)c3ccc(-c4cn(C)nn4)cc3F)[C@@H]3CCCNC3)nccc2c1` [Example 692, (R)-2-fluoro-4-(1-methyl-1H-1,2,3-triazol-4-yl)-N-(piperidin-3-yl)-N-(6-(prop-1-en-2-yl)isoquinolin-1-yl)benzamide], with 350 nM; and `Cc1cccc2ccnc(N(C(=O)c3ccc(Nc4nccc(NCc5nccs5)n4)cc3F)[C@@H]3CCCNC3)c12` [Example 693, (R)-2-fluoro-N-(8-methylisoquinolin-1-yl)-N-(piperidin-3-yl)-4-((4-((thiazol-2-ylmethyl)amino)pyrimidin-2-yl)amino)benzamide], with 120 nM.
Then `Cc1cccc2ccnc(N(C(=O)c3ccc(Nc4nccc(NCc5cnn(C)c5)n4)cc3F)[C@@H]3CCCNC3)c12` [Example 694, (R)-2-fluoro-4-((4-(((1-methyl-1H-pyrazol-4-yl)methyl)amino)pyrimidin-2-yl)amino)-N-(8-methylisoquinolin-1-yl)-N-(piperidin-3-yl)benzamide], with 46 nM; and `Cc1cccc2ccnc(N(C(=O)c3ccc(Nc4nccc(NCc5ccccn5)n4)cc3F)[C@@H]3CCCNC3)c12` [Example 695, (R)-2-fluoro-N-(8-methylisoquinolin-1-yl)-N-(piperidin-3-yl)-4-((4-((pyridin-2-ylmethyl)amino)pyrimidin-2-yl)amino)benzamide], with 130 nM.
In the case of `Cc1cccc2ccnc(N(C(=O)c3ccc(Nc4nccc(NCc5cccnc5)n4)cc3F)[C@@H]3CCCNC3)c12` [Example 696, (R)-2-fluoro-N-(8-methylisoquinolin-1-yl)-N-(piperidin-3-yl)-4-((4-((pyridin-3-ylmethyl)amino)pyrimidin-2-yl)amino)benzamide] it was 200 nM.
Consider `Cc1cccc2ccnc(N(C(=O)c3ccc(Nc4nccc(NCc5ccncc5)n4)cc3F)[C@@H]3CCCNC3)c12` [Example 697, (R)-2-fluoro-N-(8-methylisoquinolin-1-yl)-N-(piperidin-3-yl)-4-((4-((pyridin-4-ylmethyl)amino)pyrimidin-2-yl)amino)benzamide], for which the IC50 was found to be 200 nM.
Consider `CCc1nnc(-c2ccc(C(=O)N(c3nccc4scc(C)c34)[C@@H]3CCCNC3)c(F)c2)s1` [Example 698, (R)-4-(5-ethyl-1,3,4-thiadiazol-2-yl)-2-fluoro-N-(3-methylthieno[3,2-c]pyridin-4-yl)-N-(piperidin-3-yl)benzamide], for which the IC50 worked out at 170 nM.
In the case of `Cc1nnc(-c2ccc(C(=O)N(c3nccc4scc(C)c34)[C@@H]3CCCNC3)c(F)c2)o1` [Example 699, (R)-2-fluoro-4-(5-methyl-1,3,4-oxadiazol-2-yl)-N-(3-methylthieno[3,2-c]pyridin-4-yl)-N-(piperidin-3-yl)benzamide] it was 130 nM.
Then `CCc1nnc(-c2ccc(C(=O)N(c3nccc4cc(Cl)cc(C)c34)[C@@H]3CCCNC3)c(F)c2)s1` [Example 700, (R)—N-(6-chloro-8-methylisoquinolin-1-yl)-4-(5-ethyl-1,3,4-thiadiazol-2-yl)-2-fluoro-N-(piperidin-3-yl)benzamide], with 210 nM; and `Cc1cc(C)c2c(N(C(=O)c3ccc(-c4nnc(C)s4)cn3)[C@@H]3CCCNC3)nccc2c1` [Example 701, (R)—N-(6,8-dimethylisoquinolin-1-yl)-5-(5-methyl-1,3,4-thiadiazol-2-yl)-N-(piperidin-3-yl)picolinamide], with 150 nM; and `Cc1cc(C)c2c(N(C(=O)c3ccc(-c4cn(C)nn4)cc3F)[C@@H]3CCCNC3)nccc2c1` [Example 702, (R)—N-(6,8-dimethylisoquinolin-1-yl)-2-fluoro-4-(1-methyl-1H-1,2,3-triazol-4-yl)-N-(piperidin-3-yl)benzamide], with 25 nM.
In the case of `Cc1cc(C)c2c(N(C(=O)c3ccc(-c4cn(C)nn4)cn3)[C@@H]3CCCNC3)nccc2c1` [Example 703, (R)—N-(6,8-dimethylisoquinolin-1-yl)-5-(1-methyl-1H-1,2,3-triazol-4-yl)-N-(piperidin-3-yl)picolinamide] it was 60 nM; in that of `CCn1cc(-c2ccc(C(=O)N(c3nccc4scc(C)c34)[C@@H]3CCCNC3)c(F)c2)nn1` [Example 704, (R)-4-(1-ethyl-1H-1,2,3-triazol-4-yl)-2-fluoro-N-(3-methylthieno[3,2-c]pyridin-4-yl)-N-(piperidin-3-yl)benzamide], 79 nM; in that of `Cc1cc(-c2cn(C)nn2)ccc1C(=O)N(c1nccc2cccc(C)c12)C1CCCNC1` (stereo not shown) [Example 705, 2-methyl-4-(1-methyl-1H-1,2,3-triazol-4-yl)-N-(8-methylisoquinolin-1-yl)-N-(piperidin-3-yl)benzamide], 510 nM.
`COc1cc(C(=O)N(c2nccc3cc(Cl)cc(C)c23)[C@@H]2CCCNC2)ccc1-c1nnc(C)s1` [Example 706, (R)—N-(6-chloro-8-methylisoquinolin-1-yl)-3-methoxy-4-(5-methyl-1,3,4-thiadiazol-2-yl)-N-(piperidin-3-yl)benzamide]: the IC50 was 420 nM.
In the case of `Cc1nnc(-c2ccc(C(=O)N(c3nccc4cc(Cl)cc(C)c34)[C@@H]3CCCNC3)cc2C)s1` [Example 707, (R)—N-(6-chloro-8-methylisoquinolin-1-yl)-3-methyl-4-(5-methyl-1,3,4-thiadiazol-2-yl)-N-(piperidin-3-yl)benzamide] it was 470 nM; in that of `Cc1nnc(-c2ccc(C(=O)N(c3nccc4cc(Cl)cc(C)c34)[C@@H]3CCCNC3)cc2F)s1` [Example 708, (R)—N-(6-chloro-8-methylisoquinolin-1-yl)-3-fluoro-4-(5-methyl-1,3,4-thiadiazol-2-yl)-N-(piperidin-3-yl)benzamide], 160 nM; in that of `Cc1nnc(-c2ccc(C(=O)N(c3nccc4cc(Cl)cc(C)c34)[C@@H]3CCCNC3)cn2)s1` [Example 709, (R)—N-(6-chloro-8-methylisoquinolin-1-yl)-6-(5-methyl-1,3,4-thiadiazol-2-yl)-N-(piperidin-3-yl)nicotinamide], 80 nM.
In the case of `COc1nnc(-c2ccc(C(=O)N(c3nccc4cc(F)cc(C)c34)[C@@H]3CCCNC3)c(F)c2)s1` [Example 710, 2-fluoro-N-(6-fluoro-8-methyl-1-isoquinolyl)-4-(5-methoxy-1,3,4-thiadiazol-2-yl)-N-[(3R)-3-piperidyl]benzamide] it was 2300 nM.
Then `CCn1cc(-c2ccc(C(=O)N(c3nccc4cc(Cl)cc(C)c34)[C@@H]3CCCNC3)c(F)c2)nn1` [Example 711, N-(6-chloro-8-methyl-1-isoquinolyl)-4-(1-ethyltriazol-4-yl)-2-fluoro-N-[(3R)-3-piperidyl] benzamide], with 74 nM.

For the origin of these results see US20240400555A1 (Initial Therapeutics, Inc., priority 2023, published 2024).
